# Assay results reported in article PMC3707396 (Bioorganic & medicinal chemistry letters, 2013).
# Assays:
# PC-3 cells [1] = assay: WST-1 cytotoxicity in transfected PC-3 cells; assay type: cell-based; settings: Homo sapiens, PC-3, read-out: % inh WST-1 (100 μM)
# Kinetic solubility = assay type: physicochemical; settings: for Solubility bin (high, medium or low): kinetic solubility, ranges not printed (in reference)
# [2] = Passive permeability, PAMPA Explorer Kit; assay type: in vitro ADME; settings: for Log Peff: log of effective permeability, mean of n = 3; for Permeability bin (high, medium or low): ranges not printed (Ref 17)
# SK-Mel-147 cells = assay: WST-1 cytotoxicity in SK-Mel-147 cells; assay type: cell-based
# mice = assay: In vivo tolerability study
# MKL1 = settings: preliminary studies; cited from earlier work
# PC-3 cells [3] = settings: cited from earlier work
# [4] = target: Rho-pathway selective serum response element-luciferase reporter (SRE.L); settings: read-out: IC50 (SRE.L); cited from earlier work
Structure (SMILES),inhibition at 100 µM (PC-3 cells [1]) [%],"Solubility bin (high, medium or low) (Kinetic solubility)",Log Peff [2] [cm/s],"Permeability bin (high, medium or low) [2]",further results
Cc1nc(-c2cccc(C(=O)N3CCCC(C(=O)Nc4ccc(Cl)cc4)C3)c2)no1 (stereo not drawn) [Compound 8m],0,,,,
O=C(Nc1ccc(Cl)cc1)C1CCCN(C(=O)c2cccc(-c3cnco3)c2)C1 (stereo not drawn) [Compound 8j],0,,,,
O=C(Nc1ccc(Cl)cc1)C1CCCN(C(=O)c2cccc(-c3ccco3)c2)C1 (stereo not drawn) [Compound 8a],0,LOW,−8.3 ± 2.3,LOW,"WST-1 cytotoxicity (SK-Mel-147 cells): no WST-1 cytotoxicity; Body weight over the course of the study (mice; 10, 20, 50 and 100 mg/kg/day IP, 5 days): Weight was maintained; Abnormality observed at dissection (mice; 10, 20, 50 and 100 mg/kg/day IP, 5 days, sacrifice on 8th day): slight increase in liver weight; Tolerability in mice (mice; 5 days, up to 100 mg/kg/day IP, normal mice): well tolerated; Effect on MKL1 nuclear localization (MKL1): blocks MKL1 nuclear localization"
O=C(Nc1ccc(Cl)cc1)C1CCCN(C(=O)c2cccc([N+](=O)[O-])c2)C1 (stereo not drawn) [Compound 8s],0,,,,
O=C(Nc1ccc(Cl)cc1)C1CCCN(C(=O)c2cccc(-c3cccs3)c2)C1 (stereo not drawn) [Compound 8u],,LOW,−10 ± 0.00,LOW,
"O=C(Nc1ccc(Cl)cc1)C1CCCN(C(=O)c2cc(C(F)(F)F)cc(C(F)(F)F)c2)C1 (stereo not drawn) [Compound 2, reference compound]",,LOW,−10 ± 0.00,LOW,solubility (Kinetic solubility): < 10 µg/mL; Inhibition of invasion into Matrigel by cultured PC-3 cells (PC-3 cells [3]): can inhibit invasion
O=C(Nc1cccc(Cc2ccccc2)c1)C1CCCN(C(=O)c2cc(C(F)(F)F)cc(C(F)(F)F)c2)C1 (stereo not drawn) [Compound 12b],,LOW,−4.7 ± 0.05,MOD,
CCN(CC)S(=O)(=O)c1cccc(C(=O)N2CCCC(C(=O)Nc3ccc(Cl)cc3)C2)c1 (stereo not drawn) [Compound 8k],0,,,,
C=Cc1cccc(C(=O)N2CCCC(C(=O)Nc3ccc(Cl)cc3)C2)c1 (stereo not drawn) [Compound 8f],0,,,,
"CC(ONC(=O)c1cc(C(F)(F)F)cc(C(F)(F)F)c1)C(=O)Nc1ccc(Cl)cc1 (stereo not drawn) [Compound 1, reference compound]",,,,,In vivo tolerability (toxicity) (mice; repeated dosing at 7.5 mg/kg intraperitoneally (IP)): deaths observed; Inhibition of invasion of PC-3 prostate cancer cells (PC-3 cells [3]; Matrigel model of metastasis): inhibits invasion
N#Cc1cccc(C(=O)N2CCCC(C(=O)Nc3ccc(Cl)cc3)C2)c1 (stereo not drawn) [Compound 8q],0,,,,
O=C(c1ccccc1)c1cccc(C(=O)N2CCCC(C(=O)Nc3ccc(Cl)cc3)C2)c1 (stereo not drawn) [Compound 8b],0,,,,
CSc1cccc(C(=O)N2CCCC(C(=O)Nc3ccc(Cl)cc3)C2)c1 (stereo not drawn) [Compound 8i],0,,,,
Cc1cccc(C(=O)N2CCCC(C(=O)Nc3ccc(Cl)cc3)C2)c1 (stereo not drawn) [Compound 8h],0,,,,
COC(=O)c1cccc(C(=O)N2CCCC(C(=O)Nc3ccc(Cl)cc3)C2)c1 (stereo not drawn) [Compound 8l],0,,,,
"O=C(CCNC(=O)c1cc(C(F)(F)F)cc(C(F)(F)F)c1)Nc1ccc(Cl)cc1 [Compound 19, reference compound]",,LOW,−10 ± 0.00,LOW,IC50 [4]: 38 µM
COCc1cccc(C(=O)N2CCCC(C(=O)Nc3ccc(Cl)cc3)C2)c1 (stereo not drawn) [Compound 8o],0,,,,
O=C(Nc1cccc(Oc2ccccc2)c1)C1CCCN(C(=O)c2cc(C(F)(F)F)cc(C(F)(F)F)c2)C1 (stereo not drawn) [Compound 12a],,LOW,−5.1 ± 0.40,MOD-LOW,
COc1cccc(C(=O)N2CCCC(C(=O)Nc3ccc(Cl)cc3)C2)c1 (stereo not drawn) [Compound 8n],0,,,,
CC(C)(C)CC(=O)Nc1cccc(C(=O)N2CCCC(C(=O)Nc3ccc(Cl)cc3)C2)c1 (stereo not drawn) [Compound 8e],0,,,,
